Reference: paper PMC12481576, “Barbituric Acid Derivatives as Covalent Inhibitors of Leishmania braziliensis Dihydroorotate Dehydrogenase” (Journal of Medicinal Chemistry, 2025)
Where two headings read alike, the source gives them in different places. Values belong to the compound of their own block, whether it stands above or below them.

What was measured:
[1] = Parallel artificial membrane permeability assay (PAMPA); conditions: PBS pH 7.4/7.4, 6h at room temperature; for recovery at 6 h, 10 µM: PAMPA; for recovery at 6 h, 10 µM / Avg Log Pe (cm/sec) / Avg Pe: 10µM; for Pe (nm/sec) n=1: replicate n=1; for Pe (nm/sec) n=1 / Pe (nm/sec) n=2: 10µM (5% DMSO), LC-MS/MS; for Pe (nm/sec) n=2: replicate n=2
Experimental: Solutions of the compounds were prepared in duplicate by diluting the stock solutions (10 mM) in phosphate buffered saline (PBS) pH 7.4 at a final concentration of 10 μM (5% DMSO). The solutions diluted in PBS pH 7.4 were then added to the donor portion of the plate (300 μL/well), while in the acceptor portion PBS pH 7.4 (200 μL/well) was added. The two portions of the plate were then coupled, and the system was incubated for 6 h at room temperature. Samples of the initial donor solution (T0) were collected at the beginning (T0) and stored at 5 °C. The final concentrations of compounds in the donor, acceptor and T0 wells were quantified by LC-MS/MS.

LbDHODH = LbDHODH (Leishmania braziliensis, UniProt E9AI53); experiment: biochemical; conditions: for IC50: LbDHODH; for activity at 100 µM: LbDHODH remaining activity, compound 100 μM
Chain of LbDHODH (E9AI53 entry or part of it): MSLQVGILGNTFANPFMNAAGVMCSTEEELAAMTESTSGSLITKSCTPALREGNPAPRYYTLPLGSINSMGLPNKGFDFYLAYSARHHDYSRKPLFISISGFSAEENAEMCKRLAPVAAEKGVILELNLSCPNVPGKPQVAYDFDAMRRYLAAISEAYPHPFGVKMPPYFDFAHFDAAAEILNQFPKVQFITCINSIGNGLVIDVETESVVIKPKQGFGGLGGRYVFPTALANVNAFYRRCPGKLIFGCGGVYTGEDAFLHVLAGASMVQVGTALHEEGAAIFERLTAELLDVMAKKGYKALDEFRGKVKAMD
Experimental: To assess the ability of compounds 2a–2i to inhibit LbDHODH via covalent bond formation with Cys^131, we initially screened them at a concentration of 100 μM under two conditions: with and without a 4-h preincubation with the enzyme.
The experiments were performed in a 96-well microplate reader (SpectraMax Plus 384, Molecular Devices, USA), containing the […] of the buffer 60 mM DCIP, 50 mM Tris pH 8.15, 150 mM KCl, 0.1% Triton X-100, 50 μM DHO and 10 μM of LbDHODH at 165 nM. The reaction was monitored every 3 s at 610 nm over a period of 60 s, in triplicate, for the control and each concentration of the inhibitor. All assays were performed without incubation (0h) and with 4-h preincubation of the inhibitor with LbDHODH, using 5% DMSO (v/v) as control. […]. […] The resulting kobs values were plotted as a function of inhibitor concentration, and the data in the initial linear region was fit to determine the slope, which is kinact/KI. All regressions were performed with GraphPad Prism 9.

in vitro = conditions: liver microsomes, pH 7.4, % Remaining, 1 µM; for remaining at 10 min, 1 µM: T=10 min; for remaining at 1 h, 1 µM: T=60 min, 60 min
[2] = mouse liver microsomes; for Raw data: analyte peak area, T=0: 0 min; for Raw data: analyte peak area, T=0 / Raw data: analyte peak area, T=5 / Raw data: analyte peak area, T=10 / Raw data: analyte peak area, T=20 / Raw data: analyte peak area, T=30 / Raw data: analyte peak area, T=60: raw LC-MS area; for Raw data: analyte peak area, T=10: 10 min; for Raw data: analyte peak area, T=30: 30 min; for Raw data: analyte peak area, T=60: 60 min
HsDHODH = biological target: T1, HsDHODH (Homo sapiens, UniProt Q02127); experiment: Selectivity assay: HsDHODH single-dose inhibition (DCIP reduction); assay type: biochemical; conditions: HsDHODH remaining activity, 100 μM
T1 construct: made in house
T1 sequence (Q02127 whole entry): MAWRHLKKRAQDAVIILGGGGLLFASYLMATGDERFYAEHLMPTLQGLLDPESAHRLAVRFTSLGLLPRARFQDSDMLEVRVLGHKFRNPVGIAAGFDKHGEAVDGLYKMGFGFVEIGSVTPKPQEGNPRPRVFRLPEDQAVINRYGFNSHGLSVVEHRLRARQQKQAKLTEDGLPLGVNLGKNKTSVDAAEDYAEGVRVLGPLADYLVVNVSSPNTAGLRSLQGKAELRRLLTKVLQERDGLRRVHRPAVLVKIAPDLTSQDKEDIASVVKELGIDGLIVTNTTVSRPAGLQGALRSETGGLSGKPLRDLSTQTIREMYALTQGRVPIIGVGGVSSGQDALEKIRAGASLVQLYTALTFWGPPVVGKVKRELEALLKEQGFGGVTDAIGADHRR
Experimental: […]. This finding highlights the potential of barbituric acid derivatives as selective inhibitors of LbDHODH.
Human DHODH expression and purification were conducted following a protocol previously established in our laboratory. The purification was carried out by affinity chromatography on a Ni-NTA Agarose column (Qiagen[…] Cat. No. 30210). […] The reaction was performed in triplicate, initiated by adding 195 μL of reaction buffer to 5 μL of HsDHODH protein solution for a final concentration of 20 nM enzyme. As a blank, 195 μL of reaction buffer was added to 5 μL of Buffer A. The reaction was monitored at 610 nm every 3 s over 60 s. As a control, 5 μL of enzyme was added to 195 μL of reaction medium without compound. Enzymatic velocity was calculated, and the percentage of relative enzymatic activity was determined relative to the control.

[3] = pH 7.4, % Recovery n=1, replicate n=1
[4] = pH 7.4, % Recovery n=2, replicate n=2
[5] = pH 7.4, Avg % Recovery, average of n=2
[6] = mouse, n=1, mouse liver microsomes, n=1
[7] = mouse, n=2, mouse liver microsomes, n=2

SMILES: O=C(O)c1cc(=O)[nH]c(=O)[nH]1 [Orotate, orotate]
- IC50 (LbDHODH; IC50 4 h, 4-h preincubation): 27 ± 1 µM
- activity at 100 µM (LbDHODH; 4-h preincubation, read-out: single dose (4 h) % activity): 27 ± 2%
- activity at 100 µM (LbDHODH; without preincubation, read-out: single dose (0 h) % activity): 35 ± 4%
- IC50 (LbDHODH; without preincubation, read-out: IC50 0 h): 57 ± 2 µM

SMILES: CC(C)NCC(O)COc1cccc2ccccc12 (centres unmarked) [Propranolol]
- remaining at 5 min, 1 μM (in vitro; male, CD1, mouse, T=5 min, n=2, mouse liver microsomes, 5 min, n=2): 52.5%
- remaining at 10 min, 1 µM (in vitro; [6]): 46.8%
- remaining at 10 min, 1 µM (in vitro; [7]): 43.5%
- remaining at 20 min, 1 µM (in vitro; mouse, T=20 min, n=2, mouse liver microsomes, 20 min, n=2): 31.2%
- remaining at 0.5 h, 1 µM (in vitro; mouse, T=30 min, n=1, mouse liver microsomes, 30 min, n=1): 22.7%
- remaining at 1 h, 1 µM (in vitro; [6]): 16%
- remaining at 1 h, 1 µM (in vitro; [7]): 15.5%
- Raw data: analyte peak area, T=0 ([2]; replicate 1 (left block)): 97333
- Raw data: analyte peak area, T=0 ([2]; replicate 2 (right block)): 94436
- % Remaining, T=5 min, n=1 ([2]; 1 µM, 5 min, n=1): 58.1%
- % Remaining, T=20 min, n=1 ([2]; 1 µM, 20 min, n=1): 31.9%
- Raw data: analyte peak area, T=5 ([2]; 5 min, replicate 1 (left block)): 56345
- Raw data: analyte peak area, T=5 ([2]; 5 min, replicate 2 (right block)): 55807
- Raw data: analyte peak area, T=10 ([2]; replicate 1 (left block)): 45227
- Raw data: analyte peak area, T=10 ([2]; replicate 2 (right block)): 43475
- Raw data: analyte peak area, T=20 ([2]; 20 min, replicate 1 (left block)): 29264
- Raw data: analyte peak area, T=20 ([2]; 20 min, replicate 2 (right block)): 29449
- Raw data: analyte peak area, T=30 ([2]; replicate 1 (left block)): 21377
- Raw data: analyte peak area, T=30 ([2]; replicate 2 (right block)): 25558
- Raw data: analyte peak area, T=60 ([2]; replicate 1 (left block)): 15713
- Raw data: analyte peak area, T=60 ([2]; replicate 2 (right block)): 15931
- recovery at 6 h, 10 µM [1, 3]: 85.7%
- recovery at 6 h, 10 µM [1, 4]: 82.4%
- recovery at 6 h, 10 µM [1, 5]: 84%
- Avg Log Pe (cm/sec) ([1]; average of n=2): -5.2 cm/sec
- Avg Pe ([1]; average of n=2): 6.15 ×10⁻⁶ cm/s
- Pe (nm/sec) n=1 [1]: 53.6 nm/s
- Pe (nm/sec) n=2 [1]: 69.4 nm/s

SMILES: C/C(O)=C(\C#N)C(=O)Nc1ccc(C(F)(F)F)cc1 [Teriflunomide, reference compound]
- activity at 100 µM (HsDHODH; 4-h incubation, read-out: Single dose (4h) % activity): 0.39 ± 0.04%
- activity at 100 µM (HsDHODH; without incubation, read-out: Single dose (0h) % activity): 0.6 ± 0.1%

Further lines, results first:

- recovery at 6 h, 10 µM [1, 3]: 100%
- recovery at 6 h, 10 µM [1, 4]: 92.5%
- recovery at 6 h, 10 µM [1, 5]: 96.3%
- Avg Log Pe (cm/sec) ([1]; average of n=2): -5.1 cm/sec
- Avg Pe ([1]; average of n=2): 7.83 ×10⁻⁶ cm/s
- Pe (nm/sec) n=1 [1]: 80.3 nm/s
- Pe (nm/sec) n=2 [1]: 76.4 nm/s
SMILES: NC(=O)N1c2ccccc2C=Cc2ccccc21 [Carbamazepine]

- recovery at 6 h, 10 µM [1, 3]: 89.7%
- recovery at 6 h, 10 µM [1, 4]: 91.4%
- recovery at 6 h, 10 µM [1, 5]: 90.6%
- Avg Pe ([1]; average of n=2): 4.97e-05 ×10⁻⁶ cm/s
- Pe (nm/sec) n=1 [1]: 0.000533 nm/s
- Pe (nm/sec) n=2 [1]: 0.000461 nm/s
SMILES: NS(=O)(=O)c1cc(C(=O)O)c(NCc2ccco2)cc1Cl [Furosemide]
